Test: Viscosity at 20° C. by U-tube time of fall technique
Format: physicochemical
Details: 350 mgl/ml solution, 10 mM Tris, EDTA 0.1 mg/ml
Method: The obtained iodine concentration was 356 mgl/ml. The viscosity was determined to 28.7 mPas at 20° C. The osmolality was determined to 295 mOsm/kg.
a) Preparation of a 350 mgl/ml solution of IIIa containing 10 mM Tris and EDTA (0.1 mg/ml)
(§1) To a calibrated flask with a volume of 99.655 ml was added 71.174 g IIIa (water content 2.03%), 153 mg Trizma preset crystals (pH 7.3) and 10 mg EDTA disodium dihydrate followed by 67.330 g Milli-Q water. The mixture was brought to clear solution by intermittent agitation, gentle heating and sonication.
The clear solution with pH=6.95 was filtered through a Millipore Sterivex 0.22 um filter.
b) Preparation of a 350 mgl/ml solution of iopamidol containing 10 mM Tris and EDTA (0.1 mg/ml)
as §1, with “72.429” for “71.174”, “iopamidol” for “IIIa”, “1.7%), 157” for “2.03%), 153”, “66.309” for “67.330”
The clear solution with pH=6.85 was filtered through a Millipore Sterivex 0.22 um filter.
c) The two solutions from a) and b) were mixed in different proportions according to Table 1. After thorough mixing, the viscosity was determined at 20° C. using conventional U-tube time of fall technique.

SMILES	Viscosity at 20° C. (100% IIIa / 0% iopamidol by volume)	Viscosity at 20° C. (0% IIIa / 100% iopamidol by volume)
O=CN(CC(O)CN(C=O)c1c(I)c(C(=O)NCC(O)CO)c(I)c(C(=O)NCC(O)CO)c1I)c1c(I)c(C(=O)NCC(O)CO)c(I)c(C(=O)NCC(O)CO)c1I (centres unmarked) [IIIa, 5,5′-(2-hydroxypropane-1,3-diyl)bis(formylazanediyl)bis(N^1,N^3-bis(2,3-dihydroxypropyl)-2,4,6-triiodoisophthalamide)]	42.9 mPas	–
C[C@H](O)C(=O)Nc1c(I)c(C(=O)NC(CO)CO)c(I)c(C(=O)NC(CO)CO)c1I [iopamidol]	–	15.8 mPas

— patent US20110256068A1, “CONTRAST MEDIA COMPOSITIONS” (priority 2009, published 2011)
